Assay results as given in patent US6916915B1, “Stressor regulated genes” (Duke University, priority 1998, dated 2005).

System: C. elegans
Test: Reverse-Northern dot-blot analysis of steady-state mRNA levels after cadmium exposure
Type: in vivo, Caenorhabditis elegans
Details: for Fold-change in mRNA levels following cadmium exposure, DDRT1: clone DDRT1; for Fold-change in mRNA levels following cadmium exposure, DDRT2: clone DDRT2; for Fold-change in mRNA levels following cadmium exposure, DDRT3: clone DDRT3; for Fold-change in mRNA levels following cadmium exposure, DDRT4: clone DDRT4; for Fold-change in mRNA levels following cadmium exposure, DDRT5: clone DDRT5; for Fold-change in mRNA levels following cadmium exposure, DDRT6: clone DDRT6; for Fold-change in mRNA levels following cadmium exposure, DDRT7: clone DDRT7; for Fold-change in mRNA levels following cadmium exposure, DDRT9: clone DDRT9; for Fold-change in mRNA levels following cadmium exposure, DDRT10: clone DDRT10; for Fold-change in mRNA levels following cadmium exposure, DDRT12: clone DDRT12; for Fold-change in mRNA levels following cadmium exposure, DDRT15: clone DDRT15; for Fold-change in mRNA levels following cadmium exposure, DDRT16: clone DDRT16; for Fold-change in mRNA levels following cadmium exposure, DDRT17: clone DDRT17; for Fold-change in mRNA levels following cadmium exposure, DDRT18: clone DDRT18; for Fold-change in mRNA levels following cadmium exposure, DDRT19: clone DDRT19; for Fold-change in mRNA levels following cadmium exposure, DDRT20: clone DDRT20; for Fold-change in mRNA levels following cadmium exposure, DDRT21D: clone DDRT21D; for Fold-change in mRNA levels following cadmium exposure, DDRT21U: clone DDRT21U; for Fold-change in mRNA levels following cadmium exposure, DDRT22: clone DDRT22
Protocol: Growth and isolation of C. elegans—The N2 strain of C. elegans was grown in liquid S medium (0.1M NaCl, 50 mM potassium phosphate, pH 6.0, 5 μg/ml cholesterol, 10 mM potassium citrate, 3 mM CaCl2, 3 mM MgCl2, 50 μM EDTA, 25 μM FeSO4, 10 μM MnCl2, 10 μM ZnSO4 and 1 μM CuSO4) using E. coli OP50 as a food source (Brenner, S. (1974) Genetics 77, 71-94). In experiments where nematodes were exposed to cadmium, the medium was supplemented with 100 μM CdCl2 (Freedman, J. H. et al. (1993) J. Biol. Chem. 268, 2554-2564). C. elegans were grown in the presence of metal for 8 h or 24 h at ˜20° C. Nematodes were then collected following centrifugation at 800×g for 5 min. Pellets were suspended in 5 mM NaCl containing 35% sucrose (final concentration) and viable nematodes were collected from the top of the solution following centrifugation at 1000×g for 5 min at 4° C. Nematodes were then washed three times by suspension in M9 buffer (22 mM KH2PO4, 42 mM Na2HPO4, 85 mM NaCl, 1 mM MgSO4) followed by sedimentation at 800×g. Washed nematode pellets were finally suspended in a small volume of M9 buffer, rapidly frozen in liquid nitrogen and stored at −80° C.
RNA isolation—Total RNA was isolated from mix-stage populations of C. elegans exposed to 100 μM CdCl2 for 8 h and 24 h and control, non-exposed nematodes. Frozen worms were first ground into a fine powder using a liquid nitrogen-cooled mortar and pestle. Powdered C. elegans (200 mg) were then homogenized in 2 ml of TRIzol (GIBCO/BRL). RNA was then collected from the aqueous phase following the addition of chloroform, precipitated by adding isopropyl alcohol and then air-dried. The dried RNA pellet was then dissolved in diethyl pyrocarbonate (DEPC)-treated water. For some experiments, poly(A^+) RNA was subsequently isolated using the Poly(A) Tract System following manufacturer's instructions (Promega).
Reverse-Northern dot-blot analysis—Changes in the steady-state levels of differentially expressed mRNAs in C. elegans following cadmium-exposure were also determined by reverse-Northern dot-blot analysis by the modified procedure of Zhang et al. (Cummins, C. et al. (1988) Mol. Cell. Biol 8, 5334-5349). Briefly, differentially expressed cDNAs that were previously cloned into pGEM-T were amplified using primers that anneal to the T7 and SP6 RNA polymerase binding sites, which flank the cDNA insert. cDNAs were amplified and subsequently purified using a PCR-spin column (QIAGEN). Approximately 100 ng of each amplified cDNA were denatured by mixing with 0.1N NaOH (final concentration) and incubating at 100° C. for 5 min. The solution was neutralized following the addition of 3×SSC (final concentration) and then the volume adjusted to 700 μl with dH2O. 200-μl of each sample was applied to one of three Nytran membranes in a Bio-Dot microfiltration apparatus (BioRad). Membranes were then baked for 30 min at 80° C. under vacuum. As positive and loading controls 100 ng of mtl-1 cDNA and myosin light chain DNA were also applied to each membrane, respectively.
Three pools of single-stranded ^32P-labeled cDNA probes were prepared from poly(A^+) RNA isolated from control, 8 h and 24 h cadmium-treated nematodes. cDNAs were generated from a mixture of mRNAs in a 25 μl reverse transcriptase reactions which contained 2 μg poly(A^+) RNA, 1 μg oligo (dT)18 primer, reverse transcriptase buffer, 800 μM DATP, dGTP and dTTP, 4.5 μM dCTP, 100 μCi [α-^32P]dCTP (3000 Ci/mmol), 20 units RNase inhibitor and 200 units Moloney murine leukemia virus reverse transcriptase. The reaction mixture was incubated at 37° C. for 1 h, then at 95° C. for 5 min to terminate the reaction. Unincorporated nucleotides were separated from the labeled cDNAs by using a G-25 spin column (Boehringer Mannheim). Equal amounts (5×10^6 cpm/ml) of each radioactive cDNA mixture were heat-denatured and then hybridized separately to one of the three membranes at 42° C. for 16 h in hybridization buffer. […]

[1] = cadmium exposure, time not stated
[2] = 8 hours, 100 μM CdCl2, relative to non-exposed, normalized to myosin light chain mRNA
[3] = 24 hours, 100 μM CdCl2, relative to non-exposed, normalized to myosin light chain mRNA

For `[Cl][Cd][Cl]` [cadmium, CdCl2], the “increase in level of expression, forty-six of the clones” value (24-h exposure) was “up to 6 fold”, the “level of expression of myosin light-chain mRNA” value (after cadmium treatment, loading control on dot blot) was “remained constant” and the “induction of mtl-1 mRNA” value (after cadmium treatment, positive control on dot blot, time not stated) was ~5 fold. For the same compound, the “increase in the level of mRNA DDRT30 (collagen col-36)” value [1] was 3 fold, the “increase in the level of mRNA DDRT33D (predicted cuticle collagen)” value [1] was 3 fold and the “Fold-change in mRNA levels following cadmium exposure, DDRT1” value [2] was 2.2 fold. For the same compound, the “Fold-change in mRNA levels following cadmium exposure, DDRT1” value [3] was 3.2 fold, the “Fold-change in mRNA levels following cadmium exposure, DDRT2” value [2] was 3.1 fold and the “Fold-change in mRNA levels following cadmium exposure, DDRT2” value [3] was 3.9 fold. The “Fold-change in mRNA levels following cadmium exposure, DDRT3” value [2] was 2.0 fold, the “Fold-change in mRNA levels following cadmium exposure, DDRT3” value [3] was 2.4 fold and the “Fold-change in mRNA levels following cadmium exposure, DDRT4” value [2] was 2.5 fold. For the same compound, the “Fold-change in mRNA levels following cadmium exposure, DDRT4” value [3] was 2.8 fold, the “Fold-change in mRNA levels following cadmium exposure, DDRT5” value [2] was 3.2 fold and the “Fold-change in mRNA levels following cadmium exposure, DDRT5” value [3] was 3.9 fold. The “Fold-change in mRNA levels following cadmium exposure, DDRT6” value [2] was 4.7 fold, the “Fold-change in mRNA levels following cadmium exposure, DDRT6” value [3] was 5.0 fold and the “Fold-change in mRNA levels following cadmium exposure, DDRT7” value [2] was 3.6 fold. The “Fold-change in mRNA levels following cadmium exposure, DDRT7” value [3] was 4.0 fold, the “Fold-change in mRNA levels following cadmium exposure, DDRT9” value [2] was 3.5 fold and the “Fold-change in mRNA levels following cadmium exposure, DDRT9” value [3] was 2.8 fold. The “Fold-change in mRNA levels following cadmium exposure, DDRT10” value [2] was 2.7 fold, the “Fold-change in mRNA levels following cadmium exposure, DDRT10” value [3] was 2.5 fold and the “Fold-change in mRNA levels following cadmium exposure, DDRT12” value [2] was 3.0 fold. For the same compound, the “Fold-change in mRNA levels following cadmium exposure, DDRT12” value [3] was 3.2 fold, the “Fold-change in mRNA levels following cadmium exposure, DDRT15” value [2] was 2.8 fold and the “Fold-change in mRNA levels following cadmium exposure, DDRT15” value [3] was 3.1 fold. The “Fold-change in mRNA levels following cadmium exposure, DDRT16” value [2] was 4.3 fold, the “Fold-change in mRNA levels following cadmium exposure, DDRT16” value [3] was 4.9 fold and the “Fold-change in mRNA levels following cadmium exposure, DDRT17” value [2] was 3.7 fold. The “Fold-change in mRNA levels following cadmium exposure, DDRT17” value [3] was 5.7 fold, the “Fold-change in mRNA levels following cadmium exposure, DDRT18” value [2] was 2.2 fold and the “Fold-change in mRNA levels following cadmium exposure, DDRT18” value [3] was 2.9 fold. The “Fold-change in mRNA levels following cadmium exposure, DDRT19” value [2] was 2.7 fold, the “Fold-change in mRNA levels following cadmium exposure, DDRT19” value [3] was 3.9 fold and the “Fold-change in mRNA levels following cadmium exposure, DDRT20” value [2] was 2.6 fold. For the same compound, the “Fold-change in mRNA levels following cadmium exposure, DDRT20” value [3] was 2.8 fold, the “Fold-change in mRNA levels following cadmium exposure, DDRT21D” value [2] was 2.2 fold and the “Fold-change in mRNA levels following cadmium exposure, DDRT21D” value [3] was 4.2 fold. The “Fold-change in mRNA levels following cadmium exposure, DDRT21U” value [2] was 2.2 fold, the “Fold-change in mRNA levels following cadmium exposure, DDRT21U” value [3] was 2.6 fold and the “Fold-change in mRNA levels following cadmium exposure, DDRT22” value [2] was 2.5 fold. For the same compound, the “Fold-change in mRNA levels following cadmium exposure, DDRT22” value [3] was 3.3 fold and the “Fold-change in mRNA levels following cadmium exposure, DDRT23” value (clone DDRT23, 8 hours, 100 μM CdCl2, relative to non-exposed, normalized to myosin light chain mRNA) was 3.3 fold.
